# Experimental data: publication PMC5642506 (Oncotarget, 2017)
# Read-outs that look alike come from different tables or passages of the source.
# Experiments:
# [1] = test system: pretreated nonsquamous lung cancer; parameters: method as in PMID 27697581; conditions: cited from earlier work
# [2] = Dose escalation: DLT and recommended phase II dose; parameters: species or system human (patients); conditions: human, in vivo
# Protocol: (§1) In this dose-finding phase I trial, escalating doses of foretinib were added to standard dose erlotinib as continuous daily dosing. Patients were permitted to remain on study treatment until the development of disease progression, unacceptable toxicity or withdrawal of consent. To facilitate pharmacokinetic studies and ensure tolerability of standard therapy, patients received erlotinib alone daily for 14 days during cycle 1, and foretinib was initiated on day 15, cycle 1 if erlotinib was well tolerated. Daily dosing for both agents thereafter was continuous.
# Toxicity was evaluated continuously according to the Common Terminology Criteria for Adverse Events (CTCAE), Version 4.0. […] If 1/3 experienced DLT, at least 3 additional patients were treated for a total of 6 evaluable patients treated at that dose level. If 2/3 or 2/6 patients experienced DLT, dose escalation was to be stopped and that dose declared the maximum tolerated dose (MTD), with the next lower dose to be declared the recommended phase II dose for foretinib in combination with erlotinib. While designed as a 3+3 dose escalation study, 3+4 was allowed to ensure that there would be a minimum of 3 evaluable patients without having to reopen a cohort to replace a patient. Intra-patient dose escalation was not allowed. […]
# [3] = Treatment delivery, dose intensity, discontinuation; assay type: in vivo, human (patients)
# Protocol: as §1
# [4] = Pharmacokinetic analyses (plasma, non-compartmental); assay type: in vivo, human (patients)
# Protocol: Patients underwent history and physical examination, performance status, measurement of vital signs, routine hematology and biochemistry studies, thyroid studies and tumor imaging with computed tomography scans at baseline. Blood pressure monitoring and bloodwork was repeated weekly during cycle 1 and then on day 1 of each subsequent cycle. Patients were assessed on day 1 of each subsequent cycle and as needed for toxicity management. Tumor assessment with imaging was performed at every second cycle (8 weeks). Urinalysis was performed on day 1 of each cycle, ophthalmologic examination every 12 weeks, and pharmacokinetic sampling on day 14 and 28 of cycle 1.
# Patients were required not to smoke or chew tobacco products for at least 14 days prior to study entry, and to abstain at least until the completion of pharmacokinetic sampling on day 28 of cycle 1.
# [5] = test system: pretreated EGFR wild type NSCLC; parameters: method as in PMID 27825638; conditions: cited from earlier work
# [6] = test system: EGFR mutant lung cancer cells with upregulated HGF and increased MET copy number; parameters: method as in earlier work; conditions: preclinical studies; cited from earlier work
# [7] = Erlotinib D14, DL1 erlotinib 100 mg daily alone, N=6
# [8] = Erlotinib D14, DL2 erlotinib 150 mg daily alone, N=9
# [9] = Erlotinib D14, DL3 erlotinib 150 mg daily alone, N=7
# [10] = Erlotinib D28, DL1 erlotinib 100 mg + foretinib 30 mg daily, N=7
# [11] = Erlotinib D28, DL2 erlotinib 150 mg + foretinib 30 mg daily, N=11
# [12] = Erlotinib D28, DL3 erlotinib 150 mg + foretinib 45 mg daily, N=6
# [13] = human, plasma, oral, 100 mg, Erlotinib D14, DL1 erlotinib 100 mg daily alone, N=6
# [14] = human, plasma, oral, 150 mg, Erlotinib D14, DL2 erlotinib 150 mg daily alone, N=9
# [15] = human, plasma, oral, 150 mg, Erlotinib D14, DL3 erlotinib 150 mg daily alone, N=7
# [16] = human, plasma, oral, Erlotinib D28, DL1 erlotinib 100 mg + foretinib 30 mg daily, N=7
# [17] = human, plasma, oral, Erlotinib D28, DL2 erlotinib 150 mg + foretinib 30 mg daily, N=11
# [18] = human, plasma, oral, Erlotinib D28, DL3 erlotinib 150 mg + foretinib 45 mg daily, N=6
# [19] = Foretinib D28, DL1 foretinib 30 mg + erlotinib 100 mg daily, N=7
# [20] = Foretinib D28, DL2 foretinib 30 mg + erlotinib 150 mg daily, N=11
# [21] = Foretinib D28, DL3 foretinib 45 mg + erlotinib 150 mg daily, N=6
# [22] = human, plasma, oral, Foretinib D28, DL1 foretinib 30 mg + erlotinib 100 mg daily, N=7
# [23] = human, plasma, oral, Foretinib D28, DL2 foretinib 30 mg + erlotinib 150 mg daily, N=11
# [24] = human, plasma, oral, Foretinib D28, DL3 foretinib 45 mg + erlotinib 150 mg daily, N=6
compound,measurement,setting,value
C[C@@H](Oc1cc(-c2cnn(C3CCNCC3)c2)cnc1N)c1c(Cl)ccc(F)c1Cl [crizotinib],"RP2D, crizotinib","[1]; BID, plus erlotinib 100 mg daily",150 mg
C#Cc1cccc(Nc2ncnc3cc(OCCOC)c(OCCOC)cc23)c1 [erlotinib],"recommended phase II dose, erlotinib",[2],150 mg
same,"% receiving >=90% planned dose intensity, Erlotinib","[3]; DL1 (N=9), 30/100 mg",78%
same,"% receiving >=90% planned dose intensity, Erlotinib","[3]; DL2 (n=15), 30/150 mg",40%
same,"% receiving >=90% planned dose intensity, Erlotinib","[3]; DL3 (N=7), 45/150 mg",43%
same,Cavg,[4]; [7],1254 (SD 622) ng/mL
same,Clast,[4]; [7],1106 (SD 710) ng/mL
same,Cmax,[4]; [7],1719 (SD 624) ng/mL
same,Cmax Dose Norm,[4]; [7],17.2 (SD 6.24) ng/mL/mg
same,Cmin,[4]; [7],815 (SD 641) ng/mL
same,Tmin,[4]; [7],4.17 (SD 9.71) hr
same,Cavg,[4]; [8],1466 (SD 507) ng/mL
same,Clast,[4]; [8],1137 (SD 419) ng/mL
same,Cmax,[4]; [8],2335 (SD 770) ng/mL
same,Cmax Dose Norm,[4]; [8],15.6 (SD 5.13) ng/mL/mg
same,Cmin,[4]; [8],1047 (SD 437) ng/mL
same,Tmin,[4]; [8],13.33 (SD 12.65) hr
same,Cavg,[4]; [9],1548 (SD 621) ng/mL
same,Clast,[4]; [9],1247 (SD 565) ng/mL
same,Cmax Dose Norm,[4]; [9],14.91 (SD 4.14) ng/mL/mg
same,Cmin,[4]; [9],1027 (SD 507) ng/mL
same,Tmin,[4]; [9],4.71 (SD 8.77) hr
same,Cavg,[4]; [10],1497 (SD 975) ng/mL
same,Clast,[4]; [10],1300 (SD 861.44) ng/mL
same,Cmax,[4]; [10],2387 (SD 1707) ng/mL
same,Cmax Dose Norm,[4]; [10],23.87 (SD 17.07) ng/mL/mg
same,Cmin,[4]; [10],1092 (SD 894) ng/mL
same,Tmin,[4]; [10],11.2 (SD 12.07) hr
same,Cavg,[4]; [11],1579 (SD 643) ng/mL
same,Clast,[4]; [11],1343 (SD 687) ng/mL
same,Cmax Dose Norm,[4]; [11],17.64 (SD 6.49) ng/mL/mg
same,Cmin,[4]; [11],1293 (SD 688) ng/mL
same,Tmin,[4]; [11],13.27 (SD 12.34) hr
same,AUCt,[4]; [12],40765 (SD 16673) ng*hr/mL
same,Cavg,[4]; [12],1699 (SD 695) ng/mL
same,Clast,[4]; [12],1283 (SD 697) ng/mL
same,Cmax Dose Norm,[4]; [12],16.48 (SD 4.78) ng/mL/mg
same,Cmin,[4]; [12],1244 (SD 725) ng/mL
same,Tmin,[4]; [12],16.17 (SD 12.14) hr
same,AUC(0-t),[4]; [13],30100 ng·h/mL
same,Tmax,[4]; [13],7.67 h
same,clearance,[4]; [13],28.6 mL/min
same,AUC(0-t),[4]; [14],35200 ng·h/mL
same,Tmax,[4]; [14],2.22 h
same,clearance,[4]; [14],85.4 mL/min
same,AUC(0-t),[4]; [15],35500 ng·h/mL
same,Tmax,[4]; [15],3.86 h
same,clearance,[4]; [15],79.9 mL/min
same,Cmax,"[4]; human, plasma, oral, 150 mg, Erlotinib D14, DL3 erlotinib 150 mg daily alone, N=7, read-out: Cmax",2240 ng/mL
same,AUC(0-t),[4]; [16],35900 ng·h/mL
same,Tmax,[4]; [16],2.29 h
same,clearance,[4]; [16],33.9 mL/min
same,AUC(0-t),[4]; [17],36200 ng·h/mL
same,Tmax,[4]; [17],2.64 h
same,clearance,[4]; [17],76.1 mL/min
same,Tmax,[4]; [18],2.33 h
same,clearance,[4]; [18],76.2 mL/min
same,Cmax,"[4]; human, plasma, oral, Erlotinib D28, DL3 erlotinib 150 mg + foretinib 45 mg daily, N=6, read-out: Cmax",2470 ng/mL
same,"RP2D, erlotinib","[1]; daily, plus crizotinib 150 mg BID",100 mg
same,"erlotinib exposure, pharmacokinetic interaction",[1]; with crizotinib,increased erlotinib exposure
same,PFS,[5],1.8 months
COc1cc2c(Oc3ccc(NC(=O)C4(C(=O)Nc5ccc(F)cc5)CC4)cc3F)ccnc2cc1OCCCN1CCOCC1 [foretinib],"recommended phase II dose, foretinib",[2],30 mg
same,"% receiving >=90% planned dose intensity, Foretinib Cycle 1","[3]; DL1 (N=9), 30/100 mg",100%
same,"% receiving >=90% planned dose intensity, Foretinib Cycle >= 2","[3]; DL1 (N=9), 30/100 mg",50%
same,"% receiving >=90% planned dose intensity, Foretinib Cycle 1","[3]; DL2 (n=15), 30/150 mg",67%
same,"% receiving >=90% planned dose intensity, Foretinib Cycle >= 2","[3]; DL2 (n=15), 30/150 mg",31%
same,"% receiving >=90% planned dose intensity, Foretinib Cycle 1","[3]; DL3 (N=7), 45/150 mg",86%
same,"% receiving >=90% planned dose intensity, Foretinib Cycle >= 2","[3]; DL3 (N=7), 45/150 mg",0
same,Cavg,[4]; [19],30.35 (SD 9.23) ng/mL
same,Clast,[4]; [19],27.29 (SD 10.66) ng/mL
same,Cmax Dose Norm,[4]; [19],1.45 (SD 0.59) ng/mL/mg
same,Cmin,[4]; [19],22.79 (SD 7.74) ng/mL
same,Tmin,[4]; [19],12.29 (SD 11.34) hr
same,Cavg,[4]; [20],29.17 (SD 13.58) ng/mL
same,Clast,[4]; [20],24.12 (SD 9.34) ng/mL
same,Cmax Dose Norm,[4]; [20],1.49 (SD 0.74) ng/mL/mg
same,Cmin,[4]; [20],22.47 (SD 10.61) ng/mL
same,Tmin,[4]; [20],13.36 (SD 12.23) hr
same,Cavg,[4]; [21],42.07 (SD 17.31) ng/mL
same,Clast,[4]; [21],34.22 (SD 17.3) ng/mL
same,Cmax Dose Norm,[4]; [21],1.21 (SD 0.4) ng/mL/mg
same,Cmin,[4]; [21],31.96 (SD 18.16) ng/mL
same,Tmin,[4]; [21],12.0 (SD 13.15) hr
same,AUC(0-t),[4]; [22],728 ng·h/mL
same,Tmax,[4]; [22],3.14 h
same,clearance,[4]; [22],419 mL/min
same,Cmax,"[4]; human, plasma, oral, Foretinib D28, DL1 foretinib 30 mg + erlotinib 100 mg daily, N=7, read-out: Cmax",43.4 ng/mL
same,AUC(0-t),[4]; [23],681 ng·h/mL
same,Tmax,[4]; [23],3.55 h
same,clearance,[4]; [23],492 mL/min
same,Cmax,"[4]; human, plasma, oral, Foretinib D28, DL2 foretinib 30 mg + erlotinib 150 mg daily, N=11, read-out: Cmax",44.8 ng/mL
same,AUC(0-t),[4]; [24],1010 ng·h/mL
same,Tmax,[4]; [24],3.5 h
same,clearance,[4]; [24],829 mL/min
same,Cmax,"[4]; human, plasma, oral, Foretinib D28, DL3 foretinib 45 mg + erlotinib 150 mg daily, N=6, read-out: Cmax",55.9 ng/mL
same,sensitivity when added to erlotinib,[6],significantly increases sensitivity
